From ChEMBL document CHEMBL1135943, “Modifications and structure-activity relationships at the 2-position of 4-sulfonamidopyrimidine derivatives as potent endothelin antagonists” (Bioorg Med Chem Lett, 2002) come the findings set out here.

Values after ≈ are worked out from the molar mass of the structure shown. Bounds are passed on as bounds.

For data set [1], the target named is T1, Endothelin receptor type B (Rattus norvegicus, UniProt P21451).
T1 sequence (P21451 whole entry): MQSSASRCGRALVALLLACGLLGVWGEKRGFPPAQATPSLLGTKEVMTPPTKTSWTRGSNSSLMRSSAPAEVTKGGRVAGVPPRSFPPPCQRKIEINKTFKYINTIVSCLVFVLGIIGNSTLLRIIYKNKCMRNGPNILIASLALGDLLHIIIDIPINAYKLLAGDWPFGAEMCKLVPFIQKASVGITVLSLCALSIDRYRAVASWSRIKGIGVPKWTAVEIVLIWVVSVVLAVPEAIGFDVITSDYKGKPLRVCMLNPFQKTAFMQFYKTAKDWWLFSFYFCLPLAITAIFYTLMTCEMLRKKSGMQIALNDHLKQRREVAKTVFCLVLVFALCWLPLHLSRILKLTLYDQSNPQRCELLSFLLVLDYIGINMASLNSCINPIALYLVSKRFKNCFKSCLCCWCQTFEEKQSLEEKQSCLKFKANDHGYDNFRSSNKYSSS
As to the kind of experiment: In vitro inhibition of [125 I]ET-1 binding to Endothelin B receptor (ETB-receptor) in rat cerebellum membranes. It is filed as cell membranes, Membrane.

A short description of data set [2]: Water solubility at pH 7.4. It is filed as physicochemical.
The target in a further data set is T2, Endothelin-1 receptor (Sus scrofa, UniProt Q29010).
T2 sequence (Q29010 whole entry): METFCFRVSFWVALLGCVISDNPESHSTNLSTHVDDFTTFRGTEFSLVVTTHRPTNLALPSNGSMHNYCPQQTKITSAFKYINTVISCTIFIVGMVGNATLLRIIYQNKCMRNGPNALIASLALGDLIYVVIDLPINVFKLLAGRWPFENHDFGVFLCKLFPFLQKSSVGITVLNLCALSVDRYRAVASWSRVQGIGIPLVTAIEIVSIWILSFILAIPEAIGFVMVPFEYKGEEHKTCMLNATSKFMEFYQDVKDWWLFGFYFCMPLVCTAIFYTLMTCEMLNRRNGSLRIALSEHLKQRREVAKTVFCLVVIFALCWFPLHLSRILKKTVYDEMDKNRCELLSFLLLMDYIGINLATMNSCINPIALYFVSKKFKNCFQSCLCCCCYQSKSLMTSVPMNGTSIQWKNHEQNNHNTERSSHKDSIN
Description: In vitro inhibition of [125 I]ET-1 binding to Endothelin A receptor in porcine aortic membrane. In kind it is cell membranes.

Data set [3] can be described thus: Water solubility at pH 7.5. In kind it is physicochemical.

For orientation: IC50 means the concentration needed to halve the response being measured. A high value points to weaker potency. As usually defined, the solubility is the concentration that dissolves in the medium under given conditions. `COc1ccccc1Oc1c(NS(=O)(=O)c2ccc(C(C)(C)C)cc2)ncnc1OCCOc1ncc(Br)cn1` returned an IC50 in data set [1] of more than 1 nM. The compound further yielded a solubility in data set [2] of 160 µg/mL (≈ 254 µM).

On Endothelin-1 receptor, `Cc1ccc(-c2c(NS(=O)(=O)c3ccc(C(C)(C)C)cc3)ncnc2OCCOc2ncc(Br)cn2)cc1` had an IC50 of less than 0.001 nM. In addition, the concentration in solution in data set [3] (solubility) was 1.6 µg/mL (≈ 2.67 µM). The compound `Cc1ccc(-c2c(NS(=O)(=O)c3ccc(C(C)(C)C)cc3)nc(-c3cccs3)nc2OCCOc2ncc(Br)cn2)cc1` came in with an IC50 at Endothelin-1 receptor of 3.9 nM. On the same count and under the same terms, in the case of `COc1ccccc1Oc1c(NS(=O)(=O)c2ccc(C(C)(C)C)cc2)nc(C(F)(F)F)nc1OCCOc1ncc(Br)cn1` it was more than 10 nM; in that of `COc1ccccc1Oc1c(NS(=O)(=O)c2ccc(C(C)(C)C)cc2)nc(C)nc1OCCOc1ncc(Br)cn1`, 2.7 nM. `COc1ccccc1Oc1c(NS(=O)(=O)c2ccc(C(C)(C)C)cc2)nc(SCCO)nc1OCCOc1ncc(Br)cn1`: the IC50 at Endothelin-1 receptor came to 0.15 nM.

On to `COc1ccccc1Oc1c(NS(=O)(=O)c2ccc(C(C)(C)C)cc2)nc(N2CCC(O)CC2)nc1OCCOc1ncc(Br)cn1`, for which the IC50 in data set [1] was more than 1 nM; on Endothelin-1 receptor, 0.0025 nM. Moreover, the solubility in data set [2] was determined as 2570 µg/mL (≈ 3520 µM).

On to `COc1ccccc1Oc1c(NS(=O)(=O)c2ccc(C(C)(C)C)cc2)nc(NCCO)nc1OCCOc1ncc(Br)cn1`, for which the IC50 was more than 1 nM in data set [1] and 0.0053 nM on Endothelin-1 receptor. This compound registered a solubility in data set [2] of 7320 µg/mL (≈ 10600 µM). `COc1ccccc1Oc1c(NS(=O)(=O)c2ccc(C(C)(C)C)cc2)nc(OCCO)nc1OCCOc1ncc(Br)cn1` showed a 50% inhibitory concentration (IC50) at Endothelin-1 receptor of 0.2 nM. `CCCc1nc(NS(=O)(=O)c2ccc(C(C)(C)C)cc2)c(-c2ccc(C)cc2)c(OCCOc2ncc(Br)cn2)n1` returned an IC50 at Endothelin-1 receptor of 1.6 nM. At Endothelin-1 receptor, `COc1ccccc1Oc1c(NS(=O)(=O)c2ccc(C(C)(C)C)cc2)nc(N)nc1OCCOc1ncc(Br)cn1` had an IC50 of more than 10 nM. The same measure, in the same setting: in the case of `COc1ccccc1Oc1c(NS(=O)(=O)c2ccc(C(C)(C)C)cc2)nc(N(C)CCO)nc1OCCOc1ncc(Br)cn1` it was more than 10 nM; in that of `Cc1ccc(-c2c(NS(=O)(=O)c3ccc(C(C)(C)C)cc3)nc(-c3ccccn3)nc2OCCOc2ncc(Br)cn2)cc1`, 0.043 nM; in that of `CNCCNc1nc(NS(=O)(=O)c2ccc(C(C)(C)C)cc2)c(Oc2ccccc2OC)c(OCCOc2ncc(Br)cn2)n1`, more than 10 nM. On the same count and under the same terms, in the case of `CCCc1nc(NS(=O)(=O)c2ccc(C(C)(C)C)cc2)c(Oc2ccccc2OC)c(OCCOc2ncc(Br)cn2)n1` it was 0.026 nM; in that of `Cc1ccc(-c2c(NS(=O)(=O)c3ccc(C(C)(C)C)cc3)nc(-c3ccccc3)nc2OCCOc2ncc(Br)cn2)cc1`, more than 10 nM; in that of `COc1nc(NS(=O)(=O)c2ccc(C(C)(C)C)cc2)c(Oc2ccccc2OC)c(OCCOc2ncc(Br)cn2)n1`, more than 10 nM.

`COc1ccccc1Oc1c(NS(=O)(=O)c2ccc(C(C)(C)C)cc2)nc(SCCC(=O)O)nc1OCCOc1ncc(Br)cn1` returned an IC50 on Endothelin-1 receptor of 10 nM. For `COc1ccccc1Oc1c(NS(=O)(=O)c2ccc(C(C)(C)C)cc2)nc(N2CCN(C)CC2)nc1OCCOc1ncc(Br)cn1`, the IC50 on Endothelin-1 receptor came to 0.45 nM. As for `COc1ccccc1Oc1c(NS(=O)(=O)c2ccc(C(C)(C)C)cc2)nc(NCCCO)nc1OCCOc1ncc(Br)cn1`, the IC50 at Endothelin-1 receptor was more than 10 nM. Still for that read-out and setting: in the case of `Cc1ccc(-c2c(NS(=O)(=O)c3ccc(C(C)(C)C)cc3)nc(C(C)C)nc2OCCOc2ncc(Br)cn2)cc1` it was 1.1 nM.
